In the test the target is T1, gastrin receptor (Rattus norvegicus, UniProt P30553).
T1 construct: The stomach was excised and flushed with ca. 1 ml of unbuffered physiological saline solution; from tissue; host or cells: isolated whole stomach of immature rats (ca. 21 days old)
T1 sequence (P30553 1-452): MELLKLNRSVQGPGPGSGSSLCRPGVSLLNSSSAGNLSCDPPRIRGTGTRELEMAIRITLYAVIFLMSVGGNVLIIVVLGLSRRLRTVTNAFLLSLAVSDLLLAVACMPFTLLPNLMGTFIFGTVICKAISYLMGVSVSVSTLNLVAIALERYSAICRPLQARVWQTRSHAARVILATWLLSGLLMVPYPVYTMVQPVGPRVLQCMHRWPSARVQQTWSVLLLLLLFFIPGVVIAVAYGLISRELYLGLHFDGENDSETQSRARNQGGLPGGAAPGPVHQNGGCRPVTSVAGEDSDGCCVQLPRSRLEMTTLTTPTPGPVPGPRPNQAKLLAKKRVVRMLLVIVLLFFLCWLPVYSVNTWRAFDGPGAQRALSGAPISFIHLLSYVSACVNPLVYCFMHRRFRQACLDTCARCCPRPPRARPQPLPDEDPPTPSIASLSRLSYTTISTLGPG
Put plainly: gastrin antagonist activity in immature rat stomach assay (pentagastrin dose-response, acid secretion). The note with it: isolated immature rat stomach, cumulative pentagastrin dose-response curves, read-out: Gastrin pKb (converted). The protocol:
The compounds of the examples were also tested for gastrin antagonist activity in an immature rat stomach assay. The procedure was as follows:
The oesophagus of immature rats (33-50 g, ca. 21 days old) was ligated at the level of the cardiac sphincter and the duodenal sphincter was cannulated. The stomach was excised and flushed with ca. 1 ml of unbuffered physiological saline solution. The fundus was punctured and cannulated. A further 4-5 ml of unbuffered solution was flushed through the stomach to ensure the preparation was not leaking. The stomach was lowered into a jacketed organ bath containing 40 ml of buffered solution containing 3×10^−8 M 5-methylfurmethide, maintained at 37° and gassed vigorously with 95% O2/5% CO2. The stomach was continuously perfused at a rate of 1 ml min^−1 with unbuffered solution gassed with 100% O2 with the perfusate passing over an internally referenced pH-electrode fixed 12 cm above the stomach.
After 120 min of stabilisation the drugs were added directly to the serosal solution in the organ bath and after a further 60 min cumulative pentagastrin dose-response curves were started. Changes in acid secretion were monitored and the curves analysed according to Black et al., Br. J. Pharmacol., 1985, 86, 581.

SMILES strings stand for the structures. Where a name gives a salt, the structure may show the parent alone.

`O=C(O)c1cccc(NC(=O)c2[nH]c(C34CCC(CC3)CC4)nc2CCC23CC4CC(CC(C4)C2)C3)c1` [Example 212, 3-{[5-(2-Adamantan-1-yl-ethyl)-2-bicyclo[2.2.2]oct-1-yl-1H-imidazole-4-carbonyl]-amino}-benzoic Acid]: the Kb is 0.00245 µM.

On to `O=C(O)c1cc(NC(=O)c2nc(C34CCC(CC3)CC4)[nH]c2CCC23CC4CC(CC(C4)C2)C3)ccc1F` [Example 213, 5-{[5-(2-Adamantan-1-yl-ethyl)-2-bicyclo[2.2.2]oct-1-yl-1H-imidazole-4-carbonyl]-amino}-2-fluoro-benzoic Acid], for which the Kb was 0.0759 µM.

Regarding `Cn1c(C2CCCCC2)nc(C(=O)Nc2cccc(C(=O)O)c2)c1CCC12CC3CC(CC(C3)C1)C2` [Example 214, 3-{[5-(2-Adamantan-1-yl-ethyl)-2-cyclohexyl-1-methyl-1H-imidazole-4-carbonyl]-amino}-benzoic Acid], the Kb was 0.0102 µM.

Regarding `Cn1c(C2CCCCC2)nc(C(=O)Nc2cccc(CC(=O)O)c2)c1CCC12CC3CC(CC(C3)C1)C2` [Example 215, (3-{[5-(2-Adamantan-1-yl-ethyl)-2-cyclohexyl-1-methyl-1H-imidazole-4-carbonyl]-amino}-phenyl)-acetic Acid], the Kb was 0.363 µM.

For `Cc1c(NC(=O)c2nc(C3CCCCC3)[nH]c2COC23CC4CC(CC(C4)C2)C3)cccc1C(=O)O` [Example 218, 3-{[5-(Adamantan-1-yloxymethyl)-2-cyclohexyl-1H-imidazole-4-carbonyl]-amino}-2-methyl-benzoic Acid], the Kb was 0.148 µM.

Turning to `Cc1c(NC(=O)c2nc(C34CCC(CC3)CC4)[nH]c2COC23CC4CC(CC(C4)C2)C3)cccc1C(=O)O` [Example 222, 3-{[5-(Adamantan-1-yloxymethyl)-2-bicyclo[2.2.2]oct-1-yl-1H-imidazole-4-carbonyl]-amino}-2-methyl-benzoic Acid], the Kb is 0.0204 µM.

As to `O=C(O)c1cc(NC(=O)c2nc(C34CCC(CC3)CC4)[nH]c2COC23CC4CC(CC(C4)C2)C3)ccc1F` [Example 223, 5-{[5-(Adamantan-1-yloxymethyl)-2-bicyclo[2.2.2]oct-1-yl-1H-imidazole-4-carbonyl]-amino}-2-fluoro-benzoic Acid], the Kb was 0.000776 µM.

For `O=C(O)c1cccc(NC(=O)c2nc(C34C=CC(CC3)CC4)[nH]c2COC23CC4CC(CC(C4)C2)C3)c1` [Example 225, 3-{[5-(Adamantan-1-yloxymethyl)-2-bicyclo[2.2.2]oct-2-en-1-yl-1H-imidazole-4-carbonyl]-amino}-benzoic Acid], the Kb was 0.000661 µM.

Consider `Cc1cc(C)c(-c2nc(C(=O)Nc3cccc(C(=O)O)c3)c(COC34CC5CC(CC(C5)C3)C4)[nH]2)c(C)c1` [Example 226, 3-{[5-(Adamantan-1-yloxymethyl)-2-(2,4,6-trimethyl-phenyl)-1H-imidazole-4-carbonyl]-amino}-benzoic Acid], for which the Kb was 0.0135 µM.

`Cc1cc(C)c(-c2nc(C(=O)Nc3cccc(CC(=O)O)c3)c(COC34CC5CC(CC(C5)C3)C4)[nH]2)c(C)c1` [Example 227, (3-{[5-(Adamantan-1-yloxymethyl)-2-(2,4,6-trimethyl-phenyl)-1H-imidazole-4-carbonyl]-amino}-phenyl)-acetic Acid]: the Kb is 0.0525 µM.

For the compound `O=C(O)c1cccc(NC(=O)c2nc(C3CCCCCC3)[nH]c2COC23CC4CC(CC(C4)C2)C3)c1` [Example 228, 3-{[5-(Adamantan-1-yloxymethyl)-2-cycloheptyl-1H-imidazole-4-carbonyl]-amino}-benzoic Acid], the Kb is 0.000724 µM.

Consider `O=C(O)Cc1cccc(NC(=O)c2nc(C3CCCCCC3)[nH]c2COC23CC4CC(CC(C4)C2)C3)c1` [Example 229, (3-{[5-(Adamantan-1-yloxymethyl)-2-cycloheptyl-1H-imidazole-4-carbonyl]-amino}-phenyl)-acetic Acid], for which the Kb is 0.0355 µM.

With `O=C(O)c1cccc(NC(=O)c2nc(C3CCC=CCC3)[nH]c2COC23CC4CC(CC(C4)C2)C3)c1` [Example 230, 3-{[5-(Adamantan-1-yloxymethyl)-2-cyclohept-4-enyl-1H-imidazole-4-carbonyl]-amino}-benzoic Acid], the Kb was 0.00617 µM.

With `O=C(O)c1cccc(NC(=O)c2nc(C3C4CCC3CC4)[nH]c2COC23CC4CC(CC(C4)C2)C3)c1` (centres unmarked) [Example 232, 3-{[5-(Adamantan-1-yloxymethyl)-2-bicyclo[2.2.1]hept-7-yl-1H-imidazole-4-carbonyl]-amino}-benzoic Acid], the Kb is 0.00138 µM.

Consider `O=C(O)c1cccc(NC(=O)c2nc(C3CCOCC3)[nH]c2COC23CC4CC(CC(C4)C2)C3)c1` [Example 233, 3-{[5-(Adamantan-1-yloxymethyl)-2-(tetrahydro-pyran-4-yl)-1H-imidazole-4-carbonyl]-amino}-benzoic Acid], for which the Kb was 0.0708 µM.

As to `CCOC(=O)Cn1c(-c2ccccc2C)nc(C(=O)Nc2cccc(C(=O)O)c2)c1CCC12CC3CC(CC(C3)C1)C2` [Example 250, 3-{[5-(2-Adamantan-1-yl-ethyl)-1-ethoxycarbonylmethyl-2-o-tolyl-1H-imidazole-4-carbonyl]-amino}-benzoic Acid], the Kb was 0.186 µM.

For `CC(C)(C(=O)O)c1cccc(NC(=O)c2nc(C3CCCCC3)[nH]c2CCC23CC4CC(CC(C4)C2)C3)c1` [Example 256, 2-(3-{[5-(2-Adamantan-1-yl-ethyl)-2-cyclohexyl-1H-imidazole-4-carbonyl]-amino}-phenyl)-2-methyl-propionic Acid], the Kb was 0.708 µM.

Take `O=C(O)CCc1cccc(NC(=O)c2nc(C3CCCCC3)[nH]c2CCC23CC4CC(CC(C4)C2)C3)c1` [Example 258, 3-(3-{[5-(2-Adamantan-1-yl-ethyl)-2-cyclohexyl-1H-imidazole-4-carbonyl]-amino}-phenyl)-propionic Acid Trifluoroacetic Acid Salt]: the Kb is 0.204 µM.

`O=C(O)/C=C/c1cccc(NC(=O)c2nc(C3CCCCC3)[nH]c2CCC23CC4CC(CC(C4)C2)C3)c1` [Example 259, trans-3-(3-{[5-(2-Adamantan-1-yl-ethyl)-2-cyclohexyl-1H-imidazole-4-carbonyl]-amino}-phenyl)-acrylic Acid]: the Kb is 0.0708 µM.

For `O=C(O)CNS(=O)(=O)c1cccc(NC(=O)c2nc(C3CCCCC3)[nH]c2CCC23CC4CC(CC(C4)C2)C3)c1` [Example 262, (3-{[5-(2-Adamantan-1-yl-ethyl)-2-cyclohexyl-1H-imidazole-4-carbonyl]-amino}-benzenesulfonylamino)-acetic Acid], the Kb is 0.224 µM.

For the compound `O=C(O)CNC(=O)c1cccc(NC(=O)c2nc(C3CCCCC3)[nH]c2CCC23CC4CC(CC(C4)C2)C3)c1` [Example 263, (3-{[5-(2-Adamantan-1-yl-ethyl)-2-cyclohexyl-1H-imidazole-4-carbonyl]-amino}-benzoylamino)-acetic Acid], the Kb is 0.0759 µM.

For the compound `CN(CC(=O)O)C(=O)c1cccc(NC(=O)c2nc(C3CCCCC3)[nH]c2CCC23CC4CC(CC(C4)C2)C3)c1` [Example 266, [(3-{[5-(2-Adamantan-1-yl-ethyl)-2-cyclohexyl-1H-imidazole-4-carbonyl]-amino}-benzoyl)-methyl-amino]-acetic Acid], the Kb is 0.0191 µM.

With `O=C(O)CC(=O)Nc1cccc(NC(=O)c2nc(C3CCCCC3)[nH]c2CCC23CC4CC(CC(C4)C2)C3)c1` [Example 267, N-(3-{[5-(2-Adamantan-1-yl-ethyl)-2-cyclohexyl-1H-imidazole-4-carbonyl]-amino}-phenyl)-malonamic Acid], the Kb is 0.112 µM.
